Test results as given in patent publication US8735432B2, “N-(Heteroaryl)-1-heteroarylalky1-1H-indole-2-carboxamide derivatives, preparation and therapeutic use thereof” (Sanofi, priority 2005, dated 2014).

What was measured:
TRPV1 receptors = target: T1, TRPV1 receptors (Mus musculus, UniProt Q704Y3); test: Test of mouse corneal irritation (capsaicin ocular instillation); type: in vivo; settings: percentage of protection, pretreatment time t = 1 h, capsaicin 2 μl of 160 μM in the eye
T1 construct: from tissue; host or cells: living mouse, cornea (C fibres)
T1 sequence (Q704Y3 whole entry): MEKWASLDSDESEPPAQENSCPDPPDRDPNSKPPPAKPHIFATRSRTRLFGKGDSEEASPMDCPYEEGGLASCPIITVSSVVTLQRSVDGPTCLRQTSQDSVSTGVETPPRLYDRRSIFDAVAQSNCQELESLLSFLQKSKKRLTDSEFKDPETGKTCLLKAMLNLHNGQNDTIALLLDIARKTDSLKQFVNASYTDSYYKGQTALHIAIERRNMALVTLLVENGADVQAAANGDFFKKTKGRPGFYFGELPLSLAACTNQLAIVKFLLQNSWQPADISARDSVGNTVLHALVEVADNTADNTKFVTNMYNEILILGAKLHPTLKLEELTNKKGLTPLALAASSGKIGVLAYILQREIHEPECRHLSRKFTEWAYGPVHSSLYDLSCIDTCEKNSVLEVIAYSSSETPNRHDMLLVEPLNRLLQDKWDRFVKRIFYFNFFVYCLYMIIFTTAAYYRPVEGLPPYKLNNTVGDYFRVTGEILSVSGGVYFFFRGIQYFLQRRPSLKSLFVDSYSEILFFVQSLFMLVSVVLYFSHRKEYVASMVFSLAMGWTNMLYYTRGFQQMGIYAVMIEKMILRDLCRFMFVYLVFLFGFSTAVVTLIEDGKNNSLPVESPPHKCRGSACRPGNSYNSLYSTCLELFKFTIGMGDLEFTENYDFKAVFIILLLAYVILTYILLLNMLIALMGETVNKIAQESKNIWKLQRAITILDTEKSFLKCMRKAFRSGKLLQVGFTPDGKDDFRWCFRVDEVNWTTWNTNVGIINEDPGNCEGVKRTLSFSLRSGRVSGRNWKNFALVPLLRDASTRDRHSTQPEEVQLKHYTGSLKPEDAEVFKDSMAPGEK
Experimental: Test of Mouse Corneal Irritation
The irritant nature of capsaicin is readily assessed on the cornea since this organ is one of the organs most densely innervated with C fibres. In this context, from preliminary experiments, the application of a very small amount of capsaicin (2 μl at a concentration of 160 μM) to the surface of the cornea of an animal leads to a certain number of stereotypic behavioral traits associated with irritation, which are easy to detect. Among these, the following are noted: blinking of the eye, rubbing of the instilled eye with the ipsilateral front paw, rubbing of the face with both front paws, scratching of the ipsilateral face with the hind paw. […] This aspect is moreover also normal. […]
In practice, the test product is administered orally and, with a delay (pretreatment time: t) that depends on the pharmacokinetic data, the animal receives an ocular instillation of 2 μl of a 160 μM capsaicin solution prepared as indicated above. During a 2-minute observation following the instillation, the number of times the instilled eye is rubbed with the ipsilateral front paw is recorded.
For a given animal, the percentage of protection is calculated as follows: P=100−((number of scratching actions observed/mean number of scratching actions for the group treated with the solvent)×100) […]

TRPV1 receptor = target: T2, TRPV1 receptor (Rattus norvegicus, UniProt O35433); test: Inhibition of the current induced with capsaicin on rat DRGs (whole-cell patch-clamp); type: cell-based; settings: DRG neuron; compound at 3 nM; inhibition of control capsaicin response (300 nM); newborn rat DRG neurons; read-out: % inhibition as a DRG patch
T2 construct: The neurons of the DRG naturally express the TRPV1 receptor; endogenous in cells; host or cells: primary culture of newborn rat dorsal root ganglion neurons
T2 sequence (O35433 whole entry): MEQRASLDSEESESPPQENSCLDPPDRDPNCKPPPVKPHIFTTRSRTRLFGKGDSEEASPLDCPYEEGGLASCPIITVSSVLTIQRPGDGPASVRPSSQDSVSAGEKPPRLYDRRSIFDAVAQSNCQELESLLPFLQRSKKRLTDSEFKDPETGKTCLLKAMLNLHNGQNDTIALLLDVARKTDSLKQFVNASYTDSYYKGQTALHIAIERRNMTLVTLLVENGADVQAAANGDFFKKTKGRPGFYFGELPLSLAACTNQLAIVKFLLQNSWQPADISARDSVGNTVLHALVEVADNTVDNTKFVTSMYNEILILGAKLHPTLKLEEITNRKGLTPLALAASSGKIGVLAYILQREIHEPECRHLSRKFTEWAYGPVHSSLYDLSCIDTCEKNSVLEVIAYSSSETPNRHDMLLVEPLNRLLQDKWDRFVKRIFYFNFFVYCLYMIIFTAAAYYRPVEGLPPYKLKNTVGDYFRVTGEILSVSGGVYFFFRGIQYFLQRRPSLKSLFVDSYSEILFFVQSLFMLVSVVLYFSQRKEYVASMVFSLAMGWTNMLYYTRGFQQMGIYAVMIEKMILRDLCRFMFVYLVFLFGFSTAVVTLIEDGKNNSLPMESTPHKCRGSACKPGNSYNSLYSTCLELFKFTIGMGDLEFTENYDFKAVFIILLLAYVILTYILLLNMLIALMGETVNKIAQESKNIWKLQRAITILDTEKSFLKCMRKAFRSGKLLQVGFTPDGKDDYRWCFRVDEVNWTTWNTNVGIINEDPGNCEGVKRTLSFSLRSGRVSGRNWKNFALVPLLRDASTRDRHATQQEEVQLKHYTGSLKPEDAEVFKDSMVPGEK
Experimental: Test of Inhibition of the Current Induced with Capsaicin on Rat DRGs
Primary Culture of Rat Dorsal Root Ganglion (DRG) Cells:
The neurons of the DRG naturally express the TRPV1 receptor.
The primary cultures of newborn rat DRGs are prepared using 1-day-old rats. Briefly, after dissection, the ganglions are trypsinized and the cells dissociated by mechanical trituration. The cells are resuspended in an Eagle basal culture medium containing 10% fetal calf serum, 25 mM KCl, 2 mM glutamine, 100 μg/ml gentamicin and 50 ng/ml of NGF, and then deposited on glass slides coated with laminin (0.25×10^6 cells per slide), which are then placed in Corning 12-well dishes. The cells are incubated at 37° C. in a humidified atmosphere containing 5% CO2 and 95% air. […]
The measuring chambers (volume 800 μl) containing the cell preparation are placed on the platform of an inverted microscope (Olympus IMT2) equipped with Hoffman optics (Modulation Contrast, New York) and observed at a magnification of 400×. […] The overall currents (membrane potential set at −60 mV) are recorded with an Axopatch 1D amplifier (Axon Instruments, Foster City, Calif.), connected to a PC running the Pclamp8 software (Axon Instrument). The current plots are recorded on paper and simultaneously digitized (sampling frequency 15 to 25 Hz) and acquired on the hard drive of the PC. […]

| SMILES | melting point [°C] | % P - (t) at 1 mg/kg (po) (TRPV1 receptors) | inhibition at 0.003 µM (TRPV1 receptor) [%] |
| --- | --- | --- | --- |
| Cc1cnc(Cn2c(C(=O)Nc3ccc4c(c3)nc(C)n4C)cc3cc(F)ccc32)c(C)n1 | 266 to 269 | – | – |
| Cl.Cn1ccc2cc(NC(=O)c3cc4cc(F)ccc4n3Cc3ccncc3)ccc21 [Compound 3, N-(1-Methyl-1H-indol-5-yl)-5-fluoro-1-[(pyrid-4-yl)methyl]-1H-indole-2-carboxamide hydrochloride (1:1)] | – | 44% - (1 h) | – |
| Cc1nc2cc(NC(=O)c3cc4cc(C(C)(C)C)ccc4n3Cc3ccncc3)ccc2n1C.Cl.Cl [Compound 6, N-(1,2-Dimethyl-1H-benzimidazol-5-yl)-5-t-butyl-1-[(pyrid-4-yl)methyl]-1H-indole-2-carboxamide hydrochloride (1:2)] | – | 24% - (1 h) | 80 |

The next lines start with results.

| melting point [°C] | SMILES | % P - (t) at 1 mg/kg (po) (TRPV1 receptors) | inhibition at 0.003 µM (TRPV1 receptor) [%] |
| --- | --- | --- | --- |
| 269 to 275 | Cc1cnc(C)c(Cn2c(C(=O)Nc3ccc4c(c3)nc(C)n4C)cc3cc(F)ccc32)n1 | – | – |
| 226 to 228 | Cc1ncc(Cn2c(C(=O)Nc3ccc4c(c3)nc(C)n4C)cc3cc(F)ccc32)nc1C | – | – |
